The source of these data is US6555698B1, “Chemiluminescent substrates for neuraminidase, assays for detection of neuraminidase and kits therefor” (Tropix, Inc., priority 1998, dated 2003).

Like-named read-outs stand apart in the source and are kept apart here.

Common to all, as to type: biochemical
In test [1] the test system is sialidase.
The test system of test [2] is sialidase. An excerpt: FIG. 12A is a graph showing chemiluminescence (RLU) as a function of sialidase dilution using a methylumbelliferyl-N-acetylneuraminic acid salt fluorescent substrate in a 0.05 M sodium acetate/0.1M NaCl buffer.
FIG. 12B is a graph showing signal to noise ratio (S/N) as a function of sialidase dilution for a methylumbelliferyl-N-acetylneuraminic acid salt fluorescent substrate in a 0.05 M sodium acetate/0.1M NaCl buffer.
The results and conditions are summarized in Table B and depicted graphically in FIGS. 12A and 12B.
The source holds these as a separate data set.

Test [3] relates to Oxford sialidase. Description: Turner luminometer assay, incubation with Oxford sialidase at pH 5.5, then AMP pH 10 injection (Experiments 1-3). As to the method:
Next, 0.2 units of Oxford Enzyme were diluted with 400 microliters of […]. 200 microliters of the enzyme (0.1 units) were then treated with 10 microliters of the dioxetane stock and incubated at 37° C. for 15 minutes. The solution was then placed in a Turner luminometer. Light was detected at a constant 80 RLU at a pH of 5.5. All Turner readings were calibrated to 31.5° C.
5 microliters of the dioxetane stock prepared in Experiment 1 was added to 0.05 units of Oxford sialidase in 200 microliters of the pH 5.5 buffer. The solution (approximately a 110 micromolar substrate) was incubated at 37° C. for 15 minutes. The solution was then placed in a Turner luminometer, and steady light emission at about 55 RLU was noted (see FIG. 6). Next, 400 microliters of AMP pH 10 buffer was injected to produce an off-scale light spike (i.e., greater than 10,000 RLU).
Experiment 2 was repeated with a 110 micromolar substrate in the presence of 0.025 units of the enzyme. FIG. 7 illustrates that at a pH of 5.5, the light level obtained (56 RLU) was similar to that obtained in Experiment 2. […] Next, an additional 400 microliters of the AMP pH 10 buffer was added, which produced a light peak at 8860 RLU and similar decay kinetics as in Experiment 2.

For test [4], the system named is Oxford sialidase. The test is described as follows: One step chemiluminescence at pH 7.7 after adding Oxford sialidase (Experiment 6). The note with it: pH 7.7, 0.25 units sialidase. As to the method:
After incubation, 0.25 units of Oxford sialidase in 50 microliters of 50 micromolar acetate buffer was added. Chemiluminescence was spontaneously produced, rising to a maximum of 1380 RLU at 3.25 minutes (see FIG. 10).

As for “Methylumbelliferyl-N-acetylneuraminic acid salt”, the “sensitivity compared with neuraminidase-Star substrate” value in the test with sialidase [1] is recorded as “inferior sensitivity”. Besides, the signal-to-noise ratio in the test with sialidase [1] (dilution of 1:40,000) worked out at 1.79. The RLU in the test with sialidase [2] was 75078 RLU; with sialidase [2] (dilution 1000), 4209078 RLU; with sialidase [2] (dilution 5000) it was 1171002 RLU; with sialidase [2] (dilution 25000) it was 263218 RLU; in the test with sialidase [2] (dilution 625000), 32200 RLU; in the test on sialidase [2] (dilution 3125000) it was 27538 RLU. For the same compound, in the test with sialidase [2] (dilution 15625000), the RLU is 28231 RLU. Also, the S/N with sialidase [2] came to 2.74; in the test with sialidase [2] (dilution 1000), 153.62; in the test on sialidase [2] (dilution 5000), 42.74; with sialidase [2] (dilution 25000), 9.61; with sialidase [2] (dilution 625000), 1.18; with sialidase [2] (dilution 3125000), 1.01. Further, the S/N in the test with sialidase [2] (dilution 15625000) came to 0.96.
As for `COC1(c2ccc(Cl)c(O[C@]3(C(=O)[O-])C[C@H](O)[C@@H](NC(C)=O)[C@H]([C@H](O)[C@H](O)CO)O3)c2)OOC12C1CC3CC2CC(Cl)(C3)C1.[Na+]` (stereo partly drawn) [dioxetane 489-102], the “light peak after AMP pH 10 buffer” value in the test with Oxford sialidase [3] (0.025 units enzyme) is 8860 RLU. Besides, the “light level at pH 5.5” value in the test with Oxford sialidase [3] (0.025 units enzyme, 110 micromolar substrate) stood at 56 RLU. Besides, in the test with Oxford sialidase [3] (0.05 units sialidase), the “light emission relative to no enzyme noise at pH 5.5” value is reported as “about 275 times” and the “light spike after AMP pH 10 buffer” value is given as “greater than 10,000 RLU”. For the same compound, the “steady light emission at pH 5.5” value with Oxford sialidase [3] (0.05 units sialidase, approximately 110 micromolar substrate, 37° C. 15 minutes) is “about 55 RLU”. Further, the “correlation of light emission at pH 5.5 with enzyme concentration” value in the test with Oxford sialidase [3] (0.05 versus 0.025 units) was “did not correlate with enzyme concentration”. Besides, the “peak light emission after 0.1 AMP pH 10 injection” value in the test with Oxford sialidase [3] (0.1 units enzyme) is recorded as “greater than 10,000 RLU”. Moreover, the “light detected at pH 5.5” value in the test on Oxford sialidase [3] (0.1 units enzyme, 10 microliters stock, 37° C. 15 minutes) is on record as 80 RLU. Moreover, the “substrate consumption during the incubation time” value in the test on Oxford sialidase [3] (0.1 units enzyme, 37° C. 15 minutes) is on record as “near complete substrate consumption”. Also, in the test with Oxford sialidase [4], the “time of maximum chemiluminescence” value stood at 3.25 min. Moreover, the maximum chemiluminescence with Oxford sialidase [4] (31.5° C.) was found to be 1380 RLU.
